These results are taken from article PMC5603908 (Biochemistry, 2017).

The test system of one data set is E. coli ATCC 25922. As to conditions: minimal inhibitory concentration, microdilution method. On the technique in general: Broth dilution looks for growth in wells or tubes with falling amounts of substance.
Data set [1] has as its system methicillin-resistant S. aureus (MRSA) USA300. Conditions: minimal inhibitory concentration, microdilution method.
The next data set relates to S. aureus USA300. As to conditions: after peptide treatment; cited from earlier work.
A further data set has as its system human HEK293 cells. As to conditions: cited from earlier work.
For a further data set, the system named is human HaCaT cells. As to conditions: cited from earlier work.

No end group written: not given here.

Consider RWWLRRIW-NH2 [W1R], for which the “E. coli (MIC)” value in the data set with E. coli ATCC 25922 stood at 25 µM. For the same substance, the HL50 in the data set with human red blood cells was >200 µM.

As to WRWLRRIW-NH2 [W2R], the “S. aureus (MIC)” value in data set [1] stood at 6.2 µM. Besides, in the data set on E. coli ATCC 25922, the “E. coli (MIC)” value came out at 25 µM. In the data set on human red blood cells, the HL50 came to 100 µM.

Regarding WWRLRRIW-NH2 [W3R], the “E. coli (MIC)” value in the data set with E. coli ATCC 25922 amounted to 25 µM. In addition, in the data set on human red blood cells, the HL50 was >200 µM.

Consider WWWLRKIW-NH2 [TetraF2W-RK], for which the “time to entry of non-permeable dye FITC into S. aureus” value with S. aureus USA300 was 30 s.

As for WWWLRRIR-NH2 [W8R], in the data set on E. coli ATCC 25922, the “E. coli (MIC)” value worked out at 25 µM. In addition, in the data set on human red blood cells, the HL50 is >200 µM.

Take WWWLRRIW-NH2 [WT]: the “S. aureus (MIC)” value in data set [1] came out at 3.1 µM. Moreover, in the data set on E. coli ATCC 25922, the “E. coli (MIC)” value is 6.2 µM. This substance also gave an HL50 in the data set on human red blood cells of 35 µM. Besides, the “cytotoxicity” value in the data set on human HEK293 cells and with human HaCaT cells was “less cytotoxic” in each case.

In the case of WWWLRRRW-NH2 [I7R], the “S. aureus (MIC)” value in data set [1] was determined as 3.1 µM. The “E. coli (MIC)” value in the data set with E. coli ATCC 25922 is 6.2 µM. Further, in the data set on human red blood cells, the HL50 was determined as 150 µM.

For the substance WWWRRRIW-NH2 [L4R], the “E. coli (MIC)” value in the data set on E. coli ATCC 25922 amounted to 25 µM. Besides, the HL50 in the data set with human red blood cells was >200 µM.
